As usually defined, the melting point is the temperature of the solid-liquid transition.

Consider three compounds from US8586566B2, “Unsaturated heterocyclic derivatives” (ARIAD Pharmaceuticals, Inc., priority 2005, dated 2013).

`Cc1ccc(NC(=O)c2cccc(C(F)(F)F)c2)cc1/C=C/n1cnc2c(Nc3ccc(P(C)(C)=O)cc3)ncnc21` [Example 3, (E)-N-(3-(2-(6-(4-(Dimethylphosphoryl)phenylamino)-9H-purin-9-yl)vinyl)-4-methylphenyl)-3-(trifluoromethyl)benzamide] came in with a melting point of 230 to 234 °C.
For the compound `Cc1ccc(C(=O)Nc2cccc(C(F)(F)F)c2)cc1/C=C/n1cnc2c(NC3CC3)ncnc21` [Example 5, (E)-3-(2-(6-(Cyclopropylamino)-9H-purin-9-yl)vinyl)-4-methyl-N-(3-(trifluoromethyl)phenyl)benzamide], the melting point was determined as 201 °C.
Next, `Cc1ccc(NC(=O)Nc2cccc(C(F)(F)F)c2)cc1/C=C/n1cnc2c(NC3CC3)ncnc21` [Example 6, (E)-1-(3-(2-(6-(Cyclopropylamino)-9H-purin-9-yl)vinyl)-4-methylphenyl)-3-(3-(trifluoromethyl)phenyl)urea]: 160 to 162 °C.
